Results from patent publication US20100256145A1, “USE OF KCNQ POTASSIUM CHANNEL OPENERS FOR REDUCING SYMPTOMS OF OR TREATING DISORDERS OR CONDITIONS WHEREIN THE DOPAMINERGIC SYSTEM IS DISRUPTED” (H. LUNDBECK A/S, priority 2007, published 2010).

Test system: sensitised amphetamine response (hyperactivity) in mice
Assay: Sensitised behavioural response to amphetamine in mice
Format: in vivo
Conditions: Mus musculus; amphetamine-pretreated mice; s.c. 30 min before D-amphetamine 1.25 mg/kg challenge; Std. Dev. in brackets; read-out: Inhibition of the sensitised amphetamine response, ED50
Description: Subjects. Male NMRI mice (Charles River) weighing approx. 35 g are used. […] 12 mice are used pr experimental group.
Experimental procedure. […] For the 17 days between the last day of pre-treatment and the test day, the animals are kept in their homecage receiving the care as described above. The experiment is performed under normal light conditions in an undisturbed room. The mice are treated with test substance or vehicle and placed individually in the test cages for 30 min. […] 5×8 infrared light sources and photocells interspaced by 4 cm monitor the locomotor activity. The light beams cross the cage 1.8 cm above the bottom of the cage.
Administration of compounds.
Data analyses. The total counts obtained in the 30 min test are averaged pr animal group and used for calculation of drug effects in the following manner: The average motility induced by an amphetamine challenge in amphetamine-pretreated animals is used as the sensitised response. The average motility induced by a vehicle challenge to vehicle-pretreated animals is used as a baseline motility response. […] Similarly an ED50 for inhibiting baseline motility is calculated by expressed the motility response in vehicle-pretreated, vehicle-challenged, drug-treated animals relative to the baseline motility response. A therapeutic index value is subsequently calculated by dividing the first ED50 by the second.

`Cc1nc(N2CCOCC2)nc(C)c1NC(=O)Cc1ccc(F)cc1` [N-(4,6-Dimethyl-2-morpholin-4-yl-pyrimidin-5-yl)-2-(4-fluoro-phenyl)-acetamide] showed an ED50 of 0.4 mg/kg.
